Experimental data taken from patent publication US20230203025A1, “ENHANCERS OF PARTICULATE GUANYLYL CYCLASE RECEPTOR A” (Mayo Foundation for Medical Education and Research, priority 2020, published 2023).

Legend:
[1] = system: human visceral adipocytes; assay: browning and glycerol production in human visceral adipocytes; format: cell-based
pGC-A = target: T1, pGC-A (Homo sapiens, UniProt P16066); assay: cGMP production by HTRF in HEK293 cells overexpressing pGC-A; format: cell-based
T1 construct: expressed in transfected cells; host or cells: HEK293
T1 sequence (P16066 33-1061): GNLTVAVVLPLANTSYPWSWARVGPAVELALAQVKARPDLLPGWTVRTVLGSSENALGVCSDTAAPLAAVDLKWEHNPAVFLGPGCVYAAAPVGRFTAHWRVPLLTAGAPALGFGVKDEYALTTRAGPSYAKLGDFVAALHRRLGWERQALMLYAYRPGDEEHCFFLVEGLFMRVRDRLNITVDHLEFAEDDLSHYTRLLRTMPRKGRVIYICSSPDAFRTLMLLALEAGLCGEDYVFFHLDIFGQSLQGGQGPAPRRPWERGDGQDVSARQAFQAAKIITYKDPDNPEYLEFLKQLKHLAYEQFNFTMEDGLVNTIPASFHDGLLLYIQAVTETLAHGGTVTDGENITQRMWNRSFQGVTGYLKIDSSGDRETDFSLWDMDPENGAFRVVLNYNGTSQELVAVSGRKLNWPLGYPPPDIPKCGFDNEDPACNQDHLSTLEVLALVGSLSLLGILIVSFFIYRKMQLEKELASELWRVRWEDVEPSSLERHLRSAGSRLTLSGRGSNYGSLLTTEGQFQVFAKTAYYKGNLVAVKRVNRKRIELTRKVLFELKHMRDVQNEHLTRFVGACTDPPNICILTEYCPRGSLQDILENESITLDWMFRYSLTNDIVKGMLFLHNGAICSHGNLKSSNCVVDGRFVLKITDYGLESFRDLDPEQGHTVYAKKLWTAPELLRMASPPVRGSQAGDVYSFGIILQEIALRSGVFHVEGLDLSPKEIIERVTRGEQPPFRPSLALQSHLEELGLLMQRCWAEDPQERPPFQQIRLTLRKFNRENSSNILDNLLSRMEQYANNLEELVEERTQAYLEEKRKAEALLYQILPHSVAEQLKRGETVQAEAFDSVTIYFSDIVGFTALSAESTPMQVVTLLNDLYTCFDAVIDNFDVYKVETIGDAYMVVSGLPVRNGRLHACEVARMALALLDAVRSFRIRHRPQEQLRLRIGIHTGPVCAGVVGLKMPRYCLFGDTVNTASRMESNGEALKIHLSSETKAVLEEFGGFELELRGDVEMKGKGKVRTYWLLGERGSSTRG
T1 sequence (P01160 124-151 partner limits assumed): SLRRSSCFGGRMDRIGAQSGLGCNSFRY
Protocol: Assay details: 20 nL of 10 μM test compound in DMSO was added to columns 5-48 of 1536 well white high base screening plates (Corning, New York, N.Y.) cells using 550 ECHO acoustic dispenser (Labcyte, San Jose, Calif.). […] HEK293 cells overexpressing GC-A were resuspended in assay media (OptimMem media containing 2% Heat-inactivated Fetal bovine serum and L-glutamine) at a density of 6×10^5 cells/mL and 2 μL were plated in screening plates (1200 cells/well) in suspension using a Bioraptr 2. Plates were spun at 1000 rpm for 1 min and incubated for 30 min at room temperature. 1.5 μL d2-labled cGMP followed by 1.5 uL Eu^3+ cryptate-labeled anti-cGMP cGMP detection kit (CiBio; #62GM2PEC) prepared according to manufacturer's protocol were added to all wells using a Bioraptr 2 and TR-FRET signal was detected on an EnVision detector (PerkinElmer).

[2] = target: T2, extracellular domain human GC-A recombinant protein (Homo sapiens, UniProt P16066); assay: SPR GC-A binding studies (Example 7); settings: Compound 19 alone, His-tagged GC-A on Ni-NTA chip
T2 construct: extracellular domain human GC-A recombinant protein; purchased MyBioSource, Inc
T2 sequence (P16066 33-473 limits assumed): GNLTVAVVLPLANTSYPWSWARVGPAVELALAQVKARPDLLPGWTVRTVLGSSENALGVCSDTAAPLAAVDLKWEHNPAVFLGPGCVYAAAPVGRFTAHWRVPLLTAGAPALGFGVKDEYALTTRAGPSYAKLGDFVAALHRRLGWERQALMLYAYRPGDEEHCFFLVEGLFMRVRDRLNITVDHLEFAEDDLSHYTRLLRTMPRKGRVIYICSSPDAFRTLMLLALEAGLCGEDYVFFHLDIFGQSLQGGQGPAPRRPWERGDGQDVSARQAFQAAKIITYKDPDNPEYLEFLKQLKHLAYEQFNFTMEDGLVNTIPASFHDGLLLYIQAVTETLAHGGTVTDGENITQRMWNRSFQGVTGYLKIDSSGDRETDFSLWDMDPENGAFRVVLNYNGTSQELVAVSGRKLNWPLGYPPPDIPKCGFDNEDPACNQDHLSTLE
Protocol: Methods (GC-A Binding Studies): Surface plasmon resonance (SPR) measurements were performed at 25° C. on a BI-4500 SPR instrument (Biosensing Instrument Inc. Tempe AZ). […] Data was collected as sensorgrams. Binding kinetics were derived from sensorgrams using BI-Data Analysis Program (Biosensing Instrument, Tempe Ariz.).

plasma stability, human = format: in vitro ADME
[3] = hepatic microsomal stability, mouse; format: in vitro ADME
plasma stability, mouse = format: in vitro ADME
[4] = system: primary human renal proximal tubular cells (HRPTCs); assay: cGMP generation in primary human renal proximal tubular cells; format: cell-based
Description: HRPTCs represent an important human cell line as renal tubular injury and apoptosis leads to impaired renal function and structure.

[5] = pharmacokinetics after IV and PO dosing; format: in vivo, mouse; settings: plasma

Emax (pGC-A; HEK293, cGMP normalized to maximal amount produced by an EC80 concentration of ANP, read-out: Max efficacy): 82%
EC50 (pGC-A; HEK293 pGC-A cells, cGMP HTRF, in the presence of EC20 concentration of ANP): 390 nM
cGMP activity in cells expressing pGC-A (pGC-A; in the absence of ANP): devoid of cGMP activity
Kd [2]: 390 nM
Plasma Stability (% remaining at 1 h) (plasma stability, human): 107.4%
Hepatic Microsomal Stability (% remaining at 1 h) [3]: 83.6%
Plasma Stability (% remaining at 1 h) (plasma stability, mouse): 109.7%
clearance ([5]; Mean IV, mouse, 5 mg/kg): 20.3 mL/min/kg
Vd ([5]; Mean IV, mouse, 5 mg/kg, read-out: Vdss): 16.8 L/kg
Cmax ([5]; Mean PO, Mouse, 10 mg/kg): 605 ng/mL
half-life ([5]; Mean PO, Mouse, 10 mg/kg): 9.13 h
AUC ([5]; Mean PO, Mouse, 10 mg/kg, read-out: Exposure (AUC)): 7100 ng·h/mL
bioavailability ([5]; Mouse, PO 10 mg/kg vs IV 5 mg/kg): 107%
Compound: CN(C)CCN1CCCC(C(=O)Nc2nc3c(F)cc(F)cc3s2)C1 (centres unmarked) [Compound 19]
expression of the browning protein UCP1 ([1]; compound 19 added to ANP): augmented UCPI expression
ANP induction of glycerol ([1]; compound 19 with ANP, not illustrated): dose dependently increased
cGMP generation ([4]; HRPTCs, 1, 5 or 10 μM compound in the presence of ANP (10^−10 M)): clear increase in cGMP generation
cGMP generation ([4]; HRPTCs, compound alone at similar dose, no ANP): did not generate cGMP generation
